According to the supplement of paper PMC10307832:

Experiments:
Assay in all cases: relative viability (nuclei count vs DMSO), 5 days (fraction); higher = more cells survive
Apatinib + Linsitinib = compound: N#CC1(c2ccc(NC(=O)c3cccnc3NCc3ccncc3)cc2)CCCC1 [Apatinib] + C[C@]1(O)C[C@@H](c2nc(-c3ccc4ccc(-c5ccccc5)nc4c3)c3c(N)nccn32)C1 [Linsitinib] (partner 1 µM)
Summary of the method: (§1)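 One day after seeding in 1536-well plates, lung cancer cell lines were dosed by pin tool. Dosing was either single-drug or a fixed anchor-drug dose plus five library-drug doses (not always all listed) in √10 steps. After 5 days, nuclei were stained in one fix-and-stain step and counted on 4× images, and relative viability is the nuclei count of treated wells over that of vehicle wells, given as the median of duplicate plates.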

Metformin + Olaparib = compound: CN(C)C(=N)NC(=N)N [Metformin] + O=C(c1cc(Cc2n[nH]c(=O)c3ccccc23)ccc1F)N1CCN(C(=O)C2CC2)CC1 [Olaparib] (partner 8 µM)
Summary of the method: as §1

Metformin + Alpelisib = compound: CN(C)C(=N)NC(=N)N [Metformin] + Cc1nc(NC(=O)N2CCC[C@H]2C(N)=O)sc1-c1ccnc(C(C)(C)C(F)(F)F)c1 [Alpelisib] (partner 2 µM)
Summary of the method: as §1

Apatinib + Bortezomib = compound: N#CC1(c2ccc(NC(=O)c3cccnc3NCc3ccncc3)cc2)CCCC1 [Apatinib] + CC(C)C[C@H](NC(=O)[C@H](Cc1ccccc1)NC(=O)c1cnccn1)B(O)O [Bortezomib] (partner 0.002 µM)
Summary of the method: as §1

Cell Line | relative viability (Apatinib + Linsitinib; first compound 0.08 µM) | relative viability (Apatinib + Linsitinib; first compound 0.253 µM) | relative viability (Apatinib + Linsitinib; first compound 0.8 µM) | relative viability (Apatinib + Linsitinib; first compound 2.53 µM) | relative viability (Apatinib + Linsitinib; first compound 8 µM) | relative viability (Metformin + Olaparib; first compound 31.62 µM) | relative viability (Metformin + Olaparib; first compound 100 µM) | relative viability (Metformin + Olaparib; first compound 316.23 µM) | relative viability (Metformin + Olaparib; first compound 1000 µM) | relative viability (Metformin + Alpelisib; first compound 10 µM) | relative viability (Metformin + Alpelisib; first compound 31.62 µM) | relative viability (Metformin + Alpelisib; first compound 100 µM) | relative viability (Metformin + Alpelisib; first compound 316.23 µM) | relative viability (Metformin + Alpelisib; first compound 1000 µM) | relative viability (Apatinib + Bortezomib; first compound 0.08 µM) | relative viability (Apatinib + Bortezomib; first compound 0.253 µM) | relative viability (Apatinib + Bortezomib; first compound 0.8 µM) | relative viability (Apatinib + Bortezomib; first compound 2.53 µM) | relative viability (Apatinib + Bortezomib; first compound 8 µM) | relative viability (Metformin + Olaparib; first compound 10 µM)
HCC-44 | 0.673 | 0.759 | 0.66 | 0.711 | 0.592 | 0.893 | 0.822 | 0.947 | 0.929 | 0.782 | 0.825 | 0.931 | 0.711 | 0.813 | 1.01 | 0.951 | 0.894 | 0.753 | 0.856 | –
HOP-62 | 1.19 | – | 0.896 | 0.821 | 0.786 | 0.2 | 0.189 | 0.251 | 0.221 | 0.828 | 0.77 | 0.777 | 0.928 | 0.934 | 1.06 | – | 0.62 | 0.672 | 0.738 | 0.189
NCI-H358 | 0.868 | 0.777 | 0.731 | 0.627 | 0.703 | 0.537 | 0.569 | 0.412 | 0.424 | 1.1 | 0.911 | 1.07 | 0.915 | 1.25 | – | – | – | – | – | 0.394
NCI-H596 | 1.23 | 1.05 | 1.02 | 0.994 | 0.795 | 0.795 | 0.78 | 0.74 | 0.734 | 0.627 | 0.652 | 0.655 | 0.547 | 0.577 | 1.2 | 1 | 1.17 | 0.929 | 1.04 | 0.817
ABC-1 | – | 0.861 | 0.869 | 0.839 | 0.882 | 0.817 | 1.08 | 0.218 | 0.36 | – | 1.08 | 0.999 | 0.745 | 0.349 | – | 0.333 | 0.311 | 0.335 | 0.316 | –
SW 900 | – | – | – | – | – | 0.945 | – | 0.892 | 0.917 | – | – | – | – | – | – | – | – | – | – | 0.853
NCI-H1734 | 0.969 | 1.04 | 0.897 | 0.738 | 0.809 | 0.636 | 0.584 | 0.501 | 0.616 | 0.697 | 0.718 | 0.715 | 0.681 | 0.827 | 0.98 | 1.11 | 0.947 | 0.764 | 0.759 | 0.473
HARA | 1.04 | 0.983 | 0.994 | 0.995 | 0.882 | 0.81 | 0.701 | 0.762 | 1.01 | 0.915 | 0.902 | 1.06 | 0.89 | 0.964 | 1.14 | 1.07 | 1.14 | 0.992 | 1.18 | 0.989
NCI-H1703 | 0.458 | 0.657 | 0.441 | 0.0986 | 0.132 | 0.71 | 0.875 | 0.506 | 0.521 | 0.491 | 0.728 | 0.474 | 0.512 | 0.368 | 0.325 | 0.297 | 0.257 | 0.175 | 0.154 | 0.501
A549 | 0.534 | 0.647 | 0.686 | 0.649 | 0.563 | 0.308 | 0.324 | 0.269 | 0.368 | 0.766 | 0.879 | 0.739 | 0.672 | 0.611 | – | – | – | – | – | 0.281
NCI-H1915 | 1.15 | 1.02 | 1.08 | 1.06 | 0.921 | 0.24 | 0.228 | 0.222 | 0.244 | – | 1.14 | 1.09 | 1.04 | 1.11 | 0.953 | 0.984 | 0.956 | 0.812 | 0.924 | –
NCI-H1355 | 0.97 | 0.863 | 0.802 | 0.685 | 0.666 | 0.715 | 0.713 | 0.679 | 0.757 | 0.746 | 0.787 | 0.853 | 0.857 | 0.842 | 1.2 | 1.16 | 1.16 | 1.14 | 1.08 | 0.696
NCI-H1650 | – | – | – | – | – | 0.625 | 0.763 | 0.682 | 0.59 | – | – | – | – | – | 0.19 | 0.219 | 0.198 | 0.184 | 0.188 | 0.687
HCC-78 | 0.631 | 0.395 | 0.536 | 0.405 | 0.401 | 1.01 | 1.07 | 0.979 | 0.443 | 0.408 | 0.537 | 0.57 | 0.469 | 0.598 | 0.539 | 0.525 | 0.618 | 0.505 | 0.476 | –
NCI-H1666 | 0.861 | 0.99 | 0.92 | 0.917 | 0.724 | 0.76 | 0.834 | 0.726 | 0.764 | 0.943 | 1.05 | 1.12 | 0.981 | 1.29 | 0.829 | 1.02 | 0.824 | 0.785 | 0.825 | 0.78
HCC-15 | 1.02 | 0.937 | 0.813 | 0.878 | 0.878 | 0.615 | 0.47 | 0.571 | 0.585 | 0.921 | 1.07 | 1.03 | 0.659 | 0.919 | 1.09 | 1.03 | 0.972 | 0.88 | 0.992 | 0.532
EKVX | 1.04 | 1.09 | 0.985 | 0.862 | 0.795 | 0.729 | 0.769 | 0.71 | 0.683 | 0.656 | 0.934 | 0.88 | 0.812 | 0.835 | 0.941 | 1.21 | 0.967 | 0.98 | 1.01 | –
NCI-H3122 | 0.996 | 1.03 | 0.983 | 1.05 | 0.911 | 0.555 | 0.587 | 0.54 | 0.507 | 0.524 | 0.598 | 0.649 | 0.625 | 0.668 | 1.04 | 1.05 | 1.05 | 1.04 | 0.958 | 0.442
NCI-H1651 | 1.13 | 1.13 | 0.895 | 0.91 | 0.784 | 0.159 | 0.144 | 0.16 | 0.146 | 1.21 | 1.13 | 1.14 | 1.08 | 1.15 | 0.799 | 0.955 | 0.922 | 0.912 | 0.861 | 0.151
